Results on one compound are retold here after patent EP2958945B1, “COMBINATION THERAPY INVOLVING ANTIBODIES AGAINST CLAUDIN 18.2 FOR TREATMENT OF CANCER” (Astellas Pharma Inc., priority 2013, dated 2014).

Holding throughout (type): cell-based, human
The subject of test [1] is MiaPaCa-2-LVT. The test is described as follows: Inhibition of proliferation (XTT), MiaPaCa-2-LVT. The settings on record: exposed for 4 days. On the procedure: (§1) To analyze dose-response curves of each chemotherapeutic agent, a proliferation assay was performed. Table 6: Pancreas cancer cell lines to analyze efficacy of gemcitabine or oxaliplatin
(§2) Cells were seeded in 96well plates and after 4-6 hours gemcitabine or oxaliplatin was added in following concentrations: 1000, 500, 250, 100 and 20 ng/ml. The proliferation assay was incubated for 4 days at 37°C and 5% CO2. 50 µl XTT complete reagent (50 parts XTT + 1 part coupl. reagent mixed) was added and incubated at 37°C. Measurement of absorbance (cells plus supernatant) was done with the Tecan Safire after 3 h and 4 h. Inhibition of proliferation was calculated compared to medium values set as 100%. EC50 values for gemcitabine and oxaliplatin were calculated in the GraphPad Prism program.
In general terms: Formazan colour is commonly taken as a measure of viable cells.

In test [2] the test system is Capanl-LVT. The test is described as follows: Inhibition of proliferation (XTT), Capanl-LVT. The settings on record: exposed for 4 days. Here is the method:
as §1, §2

In test [3] the test system is BxPC3-LVT. The test is described as follows: Inhibition of proliferation (XTT), BxPC3-LVT. The settings on record: exposed for 4 days. On the procedure:
as §1, §2

Test [4] deals with Kato III cells. The experiment in a line: Cell cycle analysis and cell growth, Kato III. The settings on record: Kato III; 5-FU 10 or 100 ng/ml, oxaliplatin 50 or 500 ng/ml; 96 hours. On the procedure: Kato III cells, a human gastric tumor cell line, was cultivated in RPMI 1640 medium (Invitrogen) containing 20% FCS (Perbio) and 2 mM Glutamax (Invitrogen) at 37°C and 5% CO2, with or without cytostatic compounds. 5-FU (Neofluor from NeoCorp AG) was tested at a concentration of 10 or 100 ng/ml, and oxaliplatin (Hospira) was tested at a concentration of 50 or 500 ng/ml. […] Cells were harvested with EDTA/trypsin, washed and analysed.
Cell cycle stages were determined based on measurement of cellular DNA content. This allows one to discriminate between cells in the G1-, S- or G2-phase of the cell cycle. In the S-phase DNA duplication occurs whereas in the G2-phase cells grow and prepare for mitosis. Cell cycle analysis was done using the CycleTEST PLUS DNA Reagent Kit from BD Biosciences following the manufacturer's protocol. Flow cytometry acquisition and analysis were performed by using BD FACS CantoII (BD Biosciences) and FlowJo (Tree Star) software.
Kato III cells were pretreated for 4 days with Irinotecan or Docetaxel and analysed for CLDN18.2 expression and cell cycle arrest.

For test [5], the system named is DANG. The experiment in a line: Inhibition of proliferation (XTT), DANG. The settings on record: exposed for 4 days. On the procedure:
as §1, §2

Take `O=C1[O][Pt]2([NH][C@@H]3CCCC[C@H]3[NH]2)[O]C1=O` [oxaliplatin, [(1R,2R)-cyclohexane-1,2-diamine](ethanedioato-O,O')platinum(II)]: the “IC50 Inhibition of Proliferation” value was 0.05 to 0.1 µg/mL in test [1], roughly 0.1 µg/mL in test [2], 0.5 to 1 µg/mL in test [3] and roughly 0.5 µg/mL in test [5]. In addition, the “cell cycle phase distribution” value in test [4] was “enrichment of cells predominantly in the G1- and G2-phases”.
